Laboratory results reported in patent publication US8188273B2, “Insecticidal (1,3,5)-triazinyl phenyl hydrazones” (Dow AgroSciences, LLC., priority 2007, dated 2012).

Columns and labels:
[1] = test system: beet armyworm (Spodoptera exigua); test: Insecticidal test on treated lepidopteran diet, beet armyworm; format: in vivo; conditions: 120 h, second-instar larvae on treated diet, 8 wells, dose of 50 mg/cm^2 [sic] (2000 ppm, 50 μL), dead insects counted 5 days after treatment, read-out: AVG LAPHEG 50 (percent control, beet army worm)
Protocol: (§1) The compounds identified in Table 1 were prepared according to the previous methods and were tested against beet armyworm and corn earworm as follows:
(§2) Insecticidal Test for Corn Earworm (Helicoverpa zea) and Beet Armyworm (Spodoptera exigua).
(§3) To prepare test solution, the test compound was formulated at 2000 ppm solution as 4 mg/2 mL of 9 acetone:1 tap water. 50 μL of the 2000 ppm (equivalent to 50 μg/cm^2 dose on diet surface area) test solution was pipetted upon the surface of 1 mL of lepidopteran diet (Southland Multi-Species Lepidopteran Diet) contained in each of eight wells per insect species (one well=1 replication). A second-instar corn earworm and beet armyworm was placed upon the treated diet in each well once the solvent had air-dried. Trays containing the treated diet and larvae were covered and then held in a growth chamber at 25° C., 50-55% RH, and 16 hr light:8 hr dark for 5 days. Observation were conducted 5 days after treatment and infestation. The number of dead insects of 8 per species per treatment was then determined and the results are given in Table 1 as a percent control at a dose of […].
(§4) Keys to the table: Mass spectral data were obtained using liquid chromatography mass spectroscopy (LC-MS). The masses are detected using electrospray ionization (ESI) and reported as Mol Ion (M+H, M−H); AVG LAPHEG 50 refers to activity against beet army worm (Spodoptera exigua) as defined above; AVG HELIZE 50 refers to activity against corn ear worm (Helicoverpa zea) as described above.

[2] = test system: corn earworm (Helicoverpa zea); test: Insecticidal test on treated lepidopteran diet, corn earworm; format: in vivo; conditions: 120 h; second-instar larvae on treated diet, 8 wells; dose of 50 mg/cm^2 [sic] (2000 ppm, 50 μL); dead insects counted 5 days after treatment; read-out: AVG HELIZE 50 (percent control, corn ear worm)
Protocol: as §1, §2, §3, §4

Structure (SMILES)	pest or weed control at 2000 µg/mL [1]	pest or weed control at 2000 µg/mL [2]
Fc1ccc(Nc2ncnc(N/N=C/c3ccc(OC(F)(F)C(F)F)cc3)n2)cc1C(F)(F)F [Compound 97]	100%	100%
FC(F)(F)COc1nc(N/N=C/c2ccc(Br)cc2)nc(Nc2ccc(OC(F)(F)F)cc2)n1 [Compound 98]	100%	100%
FC(F)C(F)(F)Oc1ccc(/C=N/Nc2ncnc(Nc3cccc(C(F)(F)F)c3)n2)cc1 [Compound 100]	100%	100%
FC(F)(F)Oc1ccc(/C=N/Nc2ncnc(Nc3cccc(C(F)(F)F)c3)n2)cc1 [Compound 101]	100%	100%
Fc1ccc(Nc2ncnc(N/N=C/c3cccc(C(F)(F)F)c3)n2)cc1C(F)(F)F [Compound 102]	100%	100%
FC(F)(F)c1cccc(/C=N/Nc2ncnc(Nc3cccc(C(F)(F)F)c3)n2)c1 [Compound 103]	38%	100%
FC(F)C(F)(F)Oc1ccc(Nc2ncnc(N/N=C/c3cccc(C(F)(F)F)c3)n2)cc1 [Compound 104]	50%	88%
